Assays:
AXL = molecular target: T1, AXL (Homo sapiens, UniProt P30530); assay: TR-FRET kinase activity assay, AXL; format: biochemical; details: ATP at Km, 60 minutes
T1 sequence (P30530 26-894): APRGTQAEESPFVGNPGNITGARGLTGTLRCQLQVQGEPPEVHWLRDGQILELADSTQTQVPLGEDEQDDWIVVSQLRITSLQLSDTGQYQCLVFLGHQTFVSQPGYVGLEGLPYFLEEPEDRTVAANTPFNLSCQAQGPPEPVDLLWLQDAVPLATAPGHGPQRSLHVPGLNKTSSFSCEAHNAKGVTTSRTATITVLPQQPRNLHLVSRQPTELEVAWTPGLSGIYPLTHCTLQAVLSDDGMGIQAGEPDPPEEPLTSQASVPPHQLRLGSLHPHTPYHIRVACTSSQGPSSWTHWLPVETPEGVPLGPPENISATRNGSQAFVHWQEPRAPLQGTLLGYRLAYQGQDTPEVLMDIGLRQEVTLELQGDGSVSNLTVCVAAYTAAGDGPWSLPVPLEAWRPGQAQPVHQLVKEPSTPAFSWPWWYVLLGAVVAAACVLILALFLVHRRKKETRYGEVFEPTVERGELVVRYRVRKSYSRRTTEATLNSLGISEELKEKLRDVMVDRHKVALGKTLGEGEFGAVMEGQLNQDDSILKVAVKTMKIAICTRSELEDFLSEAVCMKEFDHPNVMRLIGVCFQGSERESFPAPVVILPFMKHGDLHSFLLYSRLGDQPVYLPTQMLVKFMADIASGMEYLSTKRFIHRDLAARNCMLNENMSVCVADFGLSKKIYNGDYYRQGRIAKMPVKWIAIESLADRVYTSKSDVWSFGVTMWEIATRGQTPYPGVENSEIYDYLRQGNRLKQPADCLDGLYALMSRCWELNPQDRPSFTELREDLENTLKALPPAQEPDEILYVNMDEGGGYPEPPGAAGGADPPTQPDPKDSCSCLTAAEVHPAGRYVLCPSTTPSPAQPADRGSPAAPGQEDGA
Method in brief: (§1)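 Inhibition is measured as loss of phospho-peptide formation: kinase, fluorescent tyrosine peptide and compound are combined, ATP is added at Km, and the reaction proceeds 60 min at RT in pH 7.5 HEPES buffer. An EDTA stop and Eu-labelled phospho-specific antibody allow TR-FRET detection for IC50 fitting.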

FLT3 = molecular target: T2, FLT3 (Homo sapiens, UniProt P36888); assay: TR-FRET kinase activity assay, FLT3; format: biochemical; details: ATP at Km, 60 minutes
T2 sequence (P36888 27-993): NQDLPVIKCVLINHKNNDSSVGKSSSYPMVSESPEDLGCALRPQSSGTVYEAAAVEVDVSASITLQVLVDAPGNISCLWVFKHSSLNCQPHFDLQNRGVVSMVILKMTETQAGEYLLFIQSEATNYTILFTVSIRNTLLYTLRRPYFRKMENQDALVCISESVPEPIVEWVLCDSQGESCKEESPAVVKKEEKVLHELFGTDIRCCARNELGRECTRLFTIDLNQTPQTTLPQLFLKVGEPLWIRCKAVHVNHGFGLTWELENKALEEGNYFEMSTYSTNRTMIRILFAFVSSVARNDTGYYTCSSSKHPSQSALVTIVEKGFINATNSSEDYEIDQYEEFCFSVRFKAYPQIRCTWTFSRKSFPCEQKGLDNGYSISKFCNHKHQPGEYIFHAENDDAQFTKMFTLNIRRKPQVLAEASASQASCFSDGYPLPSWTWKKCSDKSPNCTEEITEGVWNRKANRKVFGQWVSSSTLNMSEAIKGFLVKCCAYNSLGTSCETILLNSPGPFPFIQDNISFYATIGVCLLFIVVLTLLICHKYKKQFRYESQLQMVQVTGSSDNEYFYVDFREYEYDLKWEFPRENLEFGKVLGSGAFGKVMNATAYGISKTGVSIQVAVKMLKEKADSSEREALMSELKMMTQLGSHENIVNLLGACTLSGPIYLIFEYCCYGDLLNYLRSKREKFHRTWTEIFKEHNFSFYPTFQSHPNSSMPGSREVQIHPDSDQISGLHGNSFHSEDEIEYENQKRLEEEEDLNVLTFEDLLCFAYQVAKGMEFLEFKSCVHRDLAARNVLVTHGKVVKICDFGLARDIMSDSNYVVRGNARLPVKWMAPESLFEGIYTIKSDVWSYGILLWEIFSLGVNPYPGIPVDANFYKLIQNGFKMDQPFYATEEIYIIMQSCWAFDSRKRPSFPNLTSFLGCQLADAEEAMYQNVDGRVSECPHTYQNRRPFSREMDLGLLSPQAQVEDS
Method in brief: as §1

IC50 (AXL) [nM] | IC50 (FLT3) [nM] | Compound
≤ 100 | 100 to 1000 | COCC(C)Nc1ncc2c(-c3ccc(C(C)(C)c4nnc(C)o4)s3)cc(C3CCC(O)CC3)n2n1 (stereo not shown) [Compound 611]
≤ 100 | 100 to 1000 | COC[C@H](C)Nc1ncc2c(-c3cnn(C(C)(C)C(=O)N4CCCC4)c3)cc([C@H]3CC[C@H](O)CC3)n2n1 [Compound 612]
≤ 100 | ≤ 100 | C[C@@H](COC(F)F)Nc1ncc2c(-c3cnn(C(C)(C)C(=O)N4CC5(COC5)C4)c3)cc([C@H]3CC[C@H](O)CC3)n2n1 [Compound 613]
≤ 100 | 100 to 1000 | COC[C@H](C)Nc1ncc2c(-c3cnn(C4COC4)c3)cc([C@H]3CC[C@H](O)C(F)(F)C3)n2n1 [Compound 614]
≤ 100 | 100 to 1000 | CCC1(O)CCC(c2cc(-c3cnn(C4COC4)c3)c3cnc(NC(C)COC)nn23)CC1 (stereo not shown) [Compound 615]
≤ 100 | 100 to 1000 | CC[C@]1(O)CC[C@@H](c2cc(-c3cnn(C4COC4)c3)c3cnc(N[C@@H](C)COC)nn32)CC1 [Compound 616]
≤ 100 | 100 to 1000 | COC[C@H](C)Nc1ncc2c(-c3cnn(C4COC4)c3)cc([C@H]3CC[C@](O)(C(C)C)CC3)n2n1 [Compound 617]
≤ 100 | 100 to 1000 | COC[C@H](C)Nc1ncc2c(-c3cnn(C4COC4)c3)cc([C@H]3CC[C@@](O)(C(C)C)CC3)n2n1 [Compound 618]
≤ 100 | 100 to 1000 | COC[C@H](C)Nc1ncc2c(-c3ccnc(C(C)(C)O)c3)cc([C@H]3CC[C@H](O)CC3)n2n1 [Compound 619]
≤ 100 | 1000 to 10000 | COC[C@H](C)Nc1ncc2c(-c3cnn(C(C)(C)C(=O)N4CCC(C)(O)C4)c3)cc([C@H]3CC[C@H](O)CC3)n2n1 (stereo partly shown) [Compound 620]
≤ 100 | 100 to 1000 | COC[C@H](C)Nc1ncc2c(-c3cnn(C(C)(C)C(=O)N4CCCC(C)(O)C4)c3)cc([C@H]3CC[C@H](O)CC3)n2n1 (stereo partly shown) [Compound 621]
≤ 100 | 1000 to 10000 | COC[C@H](C)Nc1ncc2c(-c3cnn(C(C)(C)C(=O)N4CC(C)(O)C4)c3)cc([C@H]3CC[C@H](O)CC3)n2n1 [Compound 622]
≤ 100 | 1000 to 10000 | COC[C@H](C)Nc1ncc2c(-c3cnn(C(C)(C)c4nc(C)co4)c3)cc([C@H]3CC[C@H](O)CC3)n2n1 [Compound 623]
≤ 100 | ≤ 100 | COC[C@H](C)Nc1ncc2c(-c3cnn(C4COC4)c3)cc([C@H]3CCc4[nH]ncc4C3)n2n1 [Compound 624]
≤ 100 | 100 to 1000 | COC[C@H](C)Nc1ncc2c(-c3cnn(C(C)(C)c4nnc(C)s4)c3)cc([C@H]3CC[C@H](O)CC3)n2n1 [Compound 625]
≤ 100 | ≤ 100 | C[C@@H](CC(F)(F)F)Nc1ncc2c(-c3cnn(C(C)(C)C(=O)N4CCN(C)CC4)c3)cc(C3CCC(O)CC3)n2n1 (stereo partly shown) [Compound 626]
≤ 100 | 1000 to 10000 | COC[C@H](C)Nc1ncc2c(-c3ccnc(S(C)(=O)=O)c3)cc(C3CCC(O)CC3)n2n1 (stereo partly shown) [Compound 627]
≤ 100 | 1000 to 10000 | COC[C@H](C)Nc1ncc2c(-c3cnn(C(C)(C)c4ncc(C)o4)c3)cc(C3CCC(O)CC3)n2n1 (stereo partly shown) [Compound 628]
≤ 100 | 100 to 1000 | [2H]C([2H])([2H])OCC(C)Nc1ncc2c(-c3ccnc(N4CCOCC4)c3)cc(C3CCC(O)CC3)n2n1 (stereo not shown) [Compound 629]
≤ 100 | 100 to 1000 | [2H]C([2H])([2H])OCC(C)Nc1ncc2c(-c3cnn(C4COC4)c3)cc(C3CCC(O)CC3)n2n1 (stereo not shown) [Compound 630]
≤ 100 | 1000 to 10000 | COC[C@H](C)Nc1ncc2c(-c3cnn(C(C)(C)c4nnc(N5CCOCC5)o4)c3)cc(C3CCC(O)CC3)n2n1 (stereo partly shown) [Compound 631]
≤ 100 | 100 to 1000 | COC[C@H](C)Nc1ncc2c(-c3ccnc(N4CC(C)(O)C4)c3)cc(C3CCC(O)CC3)n2n1 (stereo partly shown) [Compound 632]
≤ 100 | 100 to 1000 | COC[C@H](C)Nc1ncc2c(-c3ccnc(N4CCC(C)(O)C4)c3)cc(C3CCC(O)CC3)n2n1 (stereo partly shown) [Compound 633]
